In patent publication US20030109486A1 (priority 2001, published 2003):
Entries after “also recorded” stand apart in the source; their conditions may differ. Like-named read-outs stand apart in the source and are kept apart here.

Experiments:
[1] = Solubility in isotonic aqueous solutions of sodium chloride; conditions: salts
[2] = Stability of ATP solutions; format: physicochemical
Description: An example of a clinical procedure in the treatment of ALI and ARDS is as follows. After determination of baseline, pre-treatment hemodynamic variables, blood gases and pH values, an ATP dose escalation procedure is initiated. ATP is provided as a sterile solution in single use vials. […] Storage of the clinical solution is at controlled refrigerated temperature (2° C.-8° C. ). […] The concentration of the final sterile solution for the infusion is 8 mg/ml.
The product must be stored at controlled refrigerated temperature (2° C.-[…]). At pH 6.7-7.2, the sodium salt in aqueous solution is stable.

[3] = Animals; cited from earlier work
[4] = Patients; cited from earlier work
[5] = Animals; cited from earlier work; remark: listed apart in the source
[6] = Patients; cited from earlier work; remark: listed apart in the source
SA + AV node = conditions: Cells/Organ; cited from earlier work
[7] = Patients; cited from earlier work; remark: listed apart in the source
[8] = Cells/Organ; cited from earlier work
[9] = Animals; cited from earlier work; remark: listed apart in the source
[10] = Patients; cited from earlier work; remark: listed apart in the source
Airway mucosa [11] = conditions: Cells/Organ; cited from earlier work
Airway mucosa [12] = conditions: Patients, cited from earlier work; for Mucociliary clearance: epithelia of cystic fibrosis patients; for Chloride secretion: observed in epithelia of healthy participants and cystic fibrosis patients
[13] = Cells/Organ; cited from earlier work; remark: listed apart in the source
Tumor [14] = conditions: Cells/Organ; cited from earlier work
Tumor [15] = conditions: Animals; cited from earlier work
Tumor [16] = conditions: Patients; cited from earlier work
[17] = intravenous, cited from earlier work
[18] = of seven children; infused directly into the pulmonary artery for 30 minutes to 30 hours; cited from earlier work
[19] = cited from earlier work; for whole blood ATP concentration, higher than the pretreatment values: 24 hr of infusion, average
[20] = tested on: non-small cell lung cancer; conditions: cited from earlier work
[21] = cited from earlier work
[22] = tested on: tissue type plasminogen activator (tPA); conditions: infusions in humans; cited from earlier work
[23] = low doses, intravenous; cited from earlier work
[24] = cited from earlier work; remark: listed apart in the source
[25] = intravenous; cited from earlier work
[26] = single arm study; cited from earlier work
[27] = in vivo; cited from earlier work
[28] = infusions; rat kidney, rat lung, dog heart, rabbit lung, rat gut; cited from earlier work
[29] = intramuscular; cited from earlier work
[30] = cited from earlier work; remark: listed apart in the source
[31] = ATP infusion rate 500-1000 μg/kg/min
[32] = ATP infusion rate ≦100 μg/kg/min
[33] = 50 or 65 microgram/kg/min for 96 hr, once every 4 weeks
[34] = administration directly into the pulmonary artery or into the superior vena cava
[35] = healthy individuals, COPD patients, patients after surgical repair of congenital heart defects

In the case of Nc1ncnc2c1ncn2[C@@H]1O[C@H](COP(=O)(O)OP(=O)(O)O)[C@@H](O)[C@H]1O [ADP, adenosine 5′-diphosphate], the “solubility in isotonic aqueous solutions of sodium chloride” value (from here on “solubility in isotonic aqueous solutions”) [1] is reported as “high solubility”.

With Nc1ncnc2c1ncn2[C@@H]1O[C@H](COP(=O)(O)O)[C@@H](O)[C@H]1O [AMP, adenosine 5′-monophosphate] the “solubility in isotonic aqueous solutions” value [1] was “high solubility”.

For Nc1ncnc2c1ncn2[C@@H]1O[C@H](COP(=O)(O)OP(=O)(O)OP(=O)(O)O)[C@@H](O)[C@H]1O [ATP, adenosine 5′-triphosphate], the “stability of the final ATP solutions at room temperature” value ([2]; final infusion solution 8 mg/ml in 0.5 normal saline, room temperature) is listed as “at least 96 hours”, the “stability of the sodium salt in aqueous solution” value ([2]; pH 6.7-7.2) is listed as “stable” and the Anaesthetic requirement [3] is listed as “Reduced”. For the same molecule, the Pain [3] was “Reduced”, the Anaesthetic requirement [4] was “Reduced” and the “Blood pressure during surgery” value [4] was “Reduced”. The “Opioid requirement after surgery” value [4] was “Reduced”, the Pain [4] was “Reduced” and the Pulmonary hypertension [5] was “Reduced”. The Pulmonary hypertension [6] was “Reduced”, the “SA + AV node conduction” value (SA + AV node) was “Inhibited” and the “SA + AV node conduction” value [7] was “Inhibited”. For the same molecule, the Supraventricular tachycardias [7] was “Inhibited”, the “Shock: Organ function” value [8] was “Improved” and the “Shock: Organ function” value [9] was “Improved”. The “Shock: Survival rate” value [9] was “Increased”, the “Shock: Survival rate” value [10] was “Increased” and the Chloride secretion (Airway mucosa [11]) was “Increased”. For the same molecule, the Ciliary beat frequency (Airway mucosa [11]) was “Increased”, the Mucus secretion (Airway mucosa [11]) was “Increased” and the Surfactant secretion (Airway mucosa [11]) was “Increased”. The Water secretion (Airway mucosa [11]) was “Increased”, the Mucociliary clearance (Airway mucosa [12]) was “Increased” and the Chloride secretion (Airway mucosa [12]) was “Increased”. For the same molecule, the Glycogenolysis [13] was “Increased”, the Chemotherapy efficacy (Tumor [14]) was “Increased” and the Radiotherapy damage (Tumor [14]) was “Reduced”. For the same molecule, the Radiotherapy efficacy (Tumor [14]) was “Increased”, the Tumor growth (Tumor [14]) was “Inhibited” and the “Cancer treatment: Weight loss” value (Tumor [15]) was “Inhibited”. The Chemotherapy efficacy (Tumor [15]) was “Increased”, the Radiotherapy damage (Tumor [15]) was “Reduced” and the Radiotherapy efficacy (Tumor [15]) was “Increased”. For the same molecule, the Radiotherapy survival rate (Tumor [15]) was “Increased”, the Tumor growth (Tumor [15]) was “Inhibited” and the “Cancer treatment: Weight loss” value (Tumor [16]) was “Inhibited”. The Tumor growth (Tumor [16]) was “Inhibited”, the “Cardiac Output” value [17, 31] was “Increase” and the “Heart Rate” value [17, 31] was “Increase”. For the same molecule, the “Pulmonary Arterial Pressure” value [17, 31] was “Decrease”, the “Pulmonary Vascular Resistance” value [17, 31] was “Decrease” and the “Systemic Arterial Pressure” value [17, 31] was “Decrease”. The “Systemic Vascular Resistance” value [17, 31] was “Decrease”, the “Cardiac Output” value [17, 32] was “Small Increase” and the “Heart Rate” value [17, 32] was “No Change”. For the same molecule, the “Pulmonary Arterial Pressure” value [17, 32] was “Decrease”, the “Pulmonary Vascular Resistance” value [17, 32] was “Decrease” and the “Systemic Arterial Pressure” value [17, 32] was “did not alter; also recorded: No Change”. For the same molecule, the “Systemic Vascular Resistance” value [17, 32] was “Small Decrease”, the “children in whom hypertension crises were completely resolved and hemodynamic stability restored” value [18] was 4 children and the “whole blood ATP concentration, higher than the pretreatment values” (shortened to “whole blood ATP concentration”) ([19]; 50 microgram/kg/min) was 63%. The “whole blood ATP concentration” value ([19]; 75 microgram/kg/min) was 67%, the “whole blood ATP concentration” value ([19]; 100 microgram/kg/min) was 113% and the “blood concentrations of ATP between 24 and 96 hr of the infusion” value ([19]; in vivo) was “relatively constant or slightly declined”. For the same molecule, the “hematologic, renal, hepatic, or gastrointestinal toxicity” value [20, 33] was “No significant”, the “patients exhibiting stable disease after treatment” value [20, 33] was “majority of patients” and the tumor shrinking [20, 33] was “no significant”. For the same molecule, the overall survival ([20]; as compared with historical data) was “beneficial effects”, the patient performance status ([20]; in vivo) was “beneficial effects” and the weight gain ([20]; in vivo) was “beneficial effects”. For the same molecule, the “severity of adverse experiences” value ([21]; 30-hr infusions, 20 up to 75 microgram/kg/min) was “generally mild”, the “Quality of Life domains” value ([21]; in vivo) was “improvements” and the body weight ([21]; in vivo) was “beneficial effects”. For the same molecule, the “electrocardiograms in patients with chest discomfort” value ([21]; in vivo) was “did not exhibit changes suggestive of myocardial ischemia”, the “time to resolution of all side effects after lowering the rate of ATP infusion” value ([21]; in vivo) was “within minutes” and the voluntary muscle strength ([21]; in vivo) was “beneficial effects”. The “release of tissue-type plasminogen activator (tPA)” value [22] was “profound acute release; also recorded: marked release”, the resolving pulmonary hypertension [23] was “effective” and the Pulmonary Arterial Pressure [24, 34] was “reducing”. For the same molecule, the Pulmonary Vascular Resistance [24, 34] was “reducing”, the Systemic Arterial Pressure [24, 34] was “without any direct effect” and the Systemic Vascular Resistance [24, 34] was “without any direct effect”. The Pulmonary Arterial Pressure [24, 35] was “significantly decreasing”, the Pulmonary Vascular Resistance [24, 35] was “significantly decreasing” and the Cardiac Output [25] was “enhances”. For the same molecule, the “portal and total hepatic blood flow” value [25] was “enhances”, the “renal and hepatic microcirculation” value [25] was “enhances” and the several metabolic functions [26] was “beneficial”. For the same molecule, the survival [27] was “significant positive effects”, the “tissue injury during reperfusion after a preceding period of ischemia” value [28] was “protective effects” and the “protecting the intestinal mucosal structure and function” value [29] was “effective”. For the same molecule, the maximum tolerated dose ([30]; 96-hr infusions, advanced non-small cell lung cancer) was 50 microgram/kg/min and the “highest dose easily tolerated” value ([30]; patients suffering from other cancers) was 100 microgram/kg/min.

In the case of Nc1ncnc2c1ncn2[C@@H]1O[C@H](CO)[C@@H](O)[C@H]1O [adenosine, reference compound], the “SA + AV node conduction” value (SA + AV node) is listed as “Inhibited”, the Chloride secretion (Airway mucosa [11]) is listed as “Increased” and the Ciliary beat frequency (Airway mucosa [11]) is listed as “Increased”. For the same molecule, the Mucus secretion (Airway mucosa [11]) was “Increased”, the Surfactant secretion (Airway mucosa [11]) was “Increased” and the Water secretion (Airway mucosa [11]) was “Increased”. For the same molecule, the Mucociliary clearance (Airway mucosa [12]) was “Increased”, the Chloride secretion (Airway mucosa [12]) was “Increased” and the Chemotherapy efficacy (Tumor [14]) was “Increased”. For the same molecule, the Radiotherapy damage (Tumor [14]) was “Reduced”, the Radiotherapy efficacy (Tumor [14]) was “Increased” and the Tumor growth (Tumor [14]) was “Inhibited”. The “Cancer treatment: Weight loss” value (Tumor [15]) was “Inhibited”, the Chemotherapy efficacy (Tumor [15]) was “Increased” and the Radiotherapy damage (Tumor [15]) was “Reduced”. The Radiotherapy efficacy (Tumor [15]) was “Increased”, the Radiotherapy survival rate (Tumor [15]) was “Increased” and the Tumor growth (Tumor [15]) was “Inhibited”. The “Cancer treatment: Weight loss” value (Tumor [16]) was “Inhibited”, the Tumor growth (Tumor [16]) was “Inhibited” and the “solubility in isotonic aqueous solutions” value [1] was “high solubility”.
